Experiment [1] addresses T1, SF9 affinity purified rat FPT (Rattus norvegicus, UniProt Q02293+Q04631).
T1 construct: made in house; host or cells: Sf9 insect cells
Briefly: PFT inhibitory activity. The experiment is classed as biochemical. The following applies: average of two tests. Here is the method: The protein:farnesyl transferase (PFT) or farnesyl protein transferase (FPT) inhibitory activity of compounds of the present invention were assayed in HEPES buffer (pH 7.4) containing 5 mM potassium phosphate and 20 μM ZnCl2. The solution also contained 5 mM DTT (dithiothreitol), 5 mM MgCl2, and 0.1% PEG 8000. Assays were performed in 96 well plates (Wallec) and employed solutions composed of varying concentrations of a compound of the present invention in 10% DMSO (dimethylsulfoxide). Upon addition of both substrates, radiolabeled farnesyl pyrophosphate ([1^3H], specific activity 15-30 Ci/mmol, final concentration 134 nM) and (biotinyl)-Ahe-Thr-Lys-Cys-Val-Ile-Met ([3aS[3a alpha, 4 beta, 6a alpha]-hexahydro-2-oxo-1H-thieno[3,4-d]imidazole-5-pentanoic acid]-[7-aminoheptanoic acid]-Thr-Lys-Cys-Val-Ile-Met) (Ahe is 7-aminoheptanoic acid, Thr is threonine, Lys is lysine, Cys is cysteine, Val is valine, Ile is isoleucine, and Met is methionine) (final concentration 0.2 4μM), the enzyme reaction was started by addition of SF9 affinity purified rat FPT. After incubation at 30° C. for 30 minutes, the reaction was terminated by diluting the reaction 2.5-fold with a stop buffer containing 1.5 M magnesium acetate, 0.2 M H3PO4, 0.5% BSA (bovine serum albumin), and strepavidin beads (Amersham) at a concentration of 1.3 mg/mL. After allowing the plate to settle for 30 minutes at room temperature, radioactivity was quantitated on a microBeta counter (Model 1450, Wallec). The assay was also carried out without 5 mM potassium phosphate.

The subject of experiment [2] is Ras protein in ras-transformed cells. Briefly: Gel Shift Assay. The experiment is classed as cell-based. Conditions: 18-hour incubation, read-out: Gel Shift (μM) MED. Here is the method:
Twenty-four hours after planting 2×10^6 ras-transformned cells per treatment condition, the farnesylation inhibitor is added at varying concentrations. Following an 18-hour incubation period, cells are lysed in phosphate-buffered saline containing 1% Triton X-100, 0.5% sodium deoxycholate, and 0.1% SDS (sodium dodecyl sulfate), pH 7.4 in the presence of several protease inhibitors (PMSF (phenylmethylsulfonylfluoride), antipain, leupeptin, pepstatin A, and aprotinin all at 1 μg/mL). Ras protein is immunoprecipitated from the supernatants by the addition of 3 μg v-H-ras Ab-2 (Y13-259 antibody from Oncogene Science). After overnight immunoprecipitation, 30 μL of a 50% protein G-Sepharose slurry (Pharmacia) is added followed by 45-minute incubation. Pellets are resuspended in 2×tris-glycine loading buffer (Novex) containing 5% mercaptoethanol and then denatured by 5 minutes boiling prior to electrophoresis on 14% Tris-glycine SDS gels. Using Western transfer techniques, proteins are transferred to nitrocellulose membranes followed by blocking in blocking buffer. Upon overnight incubation with primary antibody (pan-ras Ab-2 from Oncogene Science), an antimouse HRP (horse radish peroxidase) conjugate secondary antibody (Amersham) is employed for detection of the ras protein. Blots are developed using ECL(enhanced chemiluminescence) techniques (Amersham).
On the technique in general: Mobility shift assays separate free from complexed probe on a gel.

Experiment [3] concerns human lung carcinoma with K-ras mutation and p53 deletion. Conditions: nude mice; cited from earlier work.
Experiment [4] relates to mammary and salivary carcinomas. Conditions: daily administration; ras transgenic mice; cited from earlier work.
[5] abbreviates: HEPES buffer pH 7.4, without 5 mM potassium phosphate, read-out: IC50 (μM) Hepes.
Where [6] appears, read: HEPES buffer pH 7.4 containing 5 mM potassium phosphate, read-out: IC50 (μM) Hepes/5 mM KPO4^−2.

SMILES strings stand for the structures. Where two headings read alike, the source gives them in different places. Where only a bound is given, the exact number is not on record here.

Take `CC(C)(CNC(=O)CN(CCN)C(=O)C(Cc1cnc[nH]1)NC(=O)OCc1ccccc1)c1ccccc1` (centres unmarked) [Example 6, [1-{(2-Amino-ethyl)-[(2-methyl-2-phenyl-propylcarbamoyl)-methyl]-carbamoyl}-2-(3H-imidazol-4-yl)-ethyl]-carbamic acid benzyl ester]: the results for the IC50 in experiment [1] (setting [5]) and in experiment [1] (setting [6]) were 36 µM and 0.072 µM, respectively. Further, in experiment [2], the minimal effective concentration is over 1 µM.
Consider `CSCC[C@H](NC(=O)c1ccc(NC[C@@H](N)CS)cc1-c1ccccc1)C(=O)O` [FT1276], for which the tumor growth entry in experiment [3] is listed as “selectively block tumor growth”.
Take `CNCCN(CC(=O)NCC(C)(C)c1ccccc1)C(=O)[C@H](Cc1c[nH]cn1)NC(=O)OCc1ccccc1` [Example 7, Benzyl N-[(1S)-1-(1H-4-imidazolylmethyl)-2-([2-(methylamino)ethyl]-2-[(2-methyl-2-phenylpropyl)amino]-2-oxoethylamino)-2-oxoethyl]carbamate]: the IC50 in experiment [1] (setting [5]) was over 30 µM; in experiment [1] (setting [6]) it was 0.92 µM.
As for `CC(C)(CNC(=O)CN(CCN1CCOCC1)C(=O)[C@H](Cc1c[nH]cn1)NC(=O)OCc1ccccc1)c1ccccc1` [Example 11, Benzyl N-(1S)-1-(1H-4-imidazolylmethyl)-2-[2-[(2-methyl-2-phenylpropyl)amino]-2-oxoethyl(2-morpholinoethyl)amino]-2-oxoethylcarbamate], the IC50 was 2.1 µM in experiment [1] (setting [5]) and 0.016 µM in experiment [1] (setting [6]). Further, the minimal effective concentration in experiment [2] came out at 0.2 µM.
For `COCCN(CC(=O)NCC(C)(C)c1ccccc1)C(=O)C(Cc1cnc[nH]1)NC(=O)OCc1ccccc1` (centres unmarked) [Example 8, (2-(3H-Imidazol-4-yl)-1-{(2-methoxy-ethyl)-[(2-methyl-2-phenyl-propylcarbamoyl)-methyl]-carbamoyl}-ethyl)-carbamic acid benzyl ester], the IC50 in experiment [1] (setting [5]) is 4.8 µM; in experiment [1] (setting [6]) it was 0.019 µM. Besides, the minimal effective concentration in experiment [2] stood at 0.2 µM.
The matching figures for `C[C@@H](c1ccccc1)N(CC(=O)NCC(C)(C)c1ccccc1)C(=O)[C@H](Cc1c[nH]cn1)NC(=O)OCc1ccccc1` [Example 1, Benzyl N-((1S)-1-(1H-4-imidazolylmethyl)-2-2-[(2-methyl-2-phenylpropyl)amino]-2-oxoethyl[(1S)-1-phenylethyl]amino-2-oxoethyl)carbamate]: 0.57 µM, 0.001 µM and 0.01 µM.
As to `CC(C)OC(=O)CCN(CC(=O)NCC(C)(C)c1ccccc1)C(=O)[C@H](Cc1c[nH]cn1)NC(=O)OCc1ccccc1` [Example 12, 3-{[2-Benzyloxycarbonylamino-3-(3H-imidazol-4-yl)-propionyl]-[(2-methyl-2-phenyl-prolylcarbamoyl)-methyl]-amino}-propionic acid isopropyl ester], the IC50 in experiment [1] (setting [5]) worked out at 2.2 µM; in experiment [1] (setting [6]), 0.034 µM.
In the case of `CC[C@H](C)[C@@H](CO[C@@H](Cc1ccccc1)C(=O)N[C@@H](CCS(C)(=O)=O)C(=O)OC(C)C)NC[C@@H](N)CS` [L-744,832], the tumor regression entry in experiment [4] is “caused tumor regression”.
For the compound `C[C@H](c1ccccc1)N(CC(=O)NCC(C)(C)c1ccccc1)C(=O)[C@H](Cc1c[nH]cn1)NC(=O)OCc1ccccc1` [Example 2, Benzyl N-((1S)-1-(1H-4-imidazolylmethyl)-2-2-[(2-methyl-2-phenylpropyl)amino]-2-oxoethyl[(1R)-1-phenylethyl]amino-2-oxoethyl)carbamate], the IC50 in experiment [1] (setting [5]) was 8.3 µM; in experiment [1] (setting [6]) it was 0.065 µM. Moreover, the minimal effective concentration in experiment [2] came out at 1 µM.
On to `CN(C)C(=O)CCN(CC(=O)NCC(C)(C)c1ccccc1)C(=O)C(Cc1cnc[nH]1)NC(=O)OCc1ccccc1` (centres unmarked) [Example 13, [1-{(2-Dimethylcarbamoyl-ethyl)-[(2-methyl-2-phenyl-propylcarbamoyl)-methyl]-carbamoyl}-2-(3H-imidazol-4-yl)ethyl]-carbamic acid benzyl ester], for which the IC50 worked out at 4 µM in experiment [1] (setting [5]) and 0.007 µM in experiment [1] (setting [6]).
Turning to `CC(C)(CNC(=O)CN(CCC(=O)O)C(=O)[C@H](Cc1c[nH]cn1)NC(=O)OCc1ccccc1)c1ccccc1` [Example 5, 3-([(2S)-2-[(Benzyloxy)carbonyl]amino-3-(1H-4-imidazolyl)propanoyl]-2-[(2-methyl-2-phenylpropyl)amino]-2-oxoethylamino)propanoic acid], the IC50 in experiment [1] (setting [5]) is 2.3 µM; in experiment [1] (setting [6]), under 0.001 µM. Also, in experiment [2], the minimal effective concentration amounted to 1 µM.
Consider `CC(C)(CNC(=O)CN(CC(C)(C)c1ccccc1)C(=O)[C@H](Cc1c[nH]cn1)NC(=O)OCc1ccccc1)c1ccccc1` [Example 3, Benzyl N-[(1S)-1-(1H-4-imidazolylmethyl)-2-((2-methyl-2-phenylpropyl)2-[(2-methyl-2-phenylpropyl)amino]-2-oxoethylamino)-2-oxoethyl]carbamate], for which the IC50 in experiment [1] (setting [5]) turned out to be 0.098 µM; in experiment [1] (setting [6]), 0.001 µM. Also, in experiment [2], the minimal effective concentration was 0.01 µM.
On the same counts, the results for `CSCCN(CC(=O)NCC(C)(C)c1ccccc1)C(=O)C(Cc1cnc[nH]1)NC(=O)OCc1ccccc1` (centres unmarked) [Example 14, {2-(3H-Imidazol-4-yl)-1-[[(2-methyl-2-phenyl-propylcarbamoyl)-methyl]-(2-methylsulfanyl-ethyl)-carbamoyl]-ethyl}-carbamic acid benzyl ester] are 1.2 µM, 0.006 µM and 0.05 µM.
The matching figures for `C/C=C/CN(CC(=O)NCC(C)(C)c1ccccc1)C(=O)[C@H](Cc1c[nH]cn1)NC(=O)OCc1ccccc1` [Example 9, Benzyl N-[2-((E)-2-butenyl-2-[(2-methyl-2-phenylpropyl)amino]-2-oxoethylamino)-1-(1H-4-imidazolylmethyl1)-2-oxoethyl]carbamate]: 1.4 µM, 0.011 µM and 0.01 µM.
With `COC(=O)CCN(CC(=O)NCC(C)(C)c1ccccc1)C(=O)[C@H](Cc1c[nH]cn1)NC(=O)OCc1ccccc1` [Example 4, Methyl 3-([(2S)-2-[(benzyloxy)carbonyl]amino-3-(1H-4-imidazolyl)propanoyl]-2-[(2-methyl-2-phenylpropyl)amino]-2-oxoethylamino)propanoate], the IC50 in experiment [1] (setting [5]) was determined as 5 µM; in experiment [1] (setting [6]) it was 0.018 µM. In addition, the minimal effective concentration in experiment [2] was 0.1 µM.
On the same counts, the results for `CC(OC(=O)NC(Cc1c[nH]cn1)C(=O)N(CC(=O)NCC(C)(C)c1ccccc1)Cc1ccc(OCc2ccccc2)cc1)c1ccccc1` (centres unmarked) [Example 10, [1-{(4-Benzyloxy-benzyl)-[(2-methyl-2-phenyl-propylcarbamoyl)-methyl]-carbamoyl}-2-(1H-imidazol-4-yl)-ethyl]-carbamic acid 1-phenyl-ethyl ester] are 0.25 µM, 0.004 µM and 0.01 µM.

The values are drawn from patent publication US6369034B1, “Functionalized alkyl and alenyl side chain derivatives of glycinamides as farnesyl transferase inhibitors” (Warner-Lambert Company, priority 1998, dated 2002).
